Results as given in PMC6356585 (Viruses, 2018).
Where a name gives a salt, the structure may show the parent alone. Read-outs that look alike come from different tables or passages of the source.

Key:
ZIKV SPH [1] = assay: Autophagy compound library screen, ZIKV SPH titer (TCID50) in C6/36 cells; type: cell-based, Zika virus; conditions: for activity at 10 µM: Zika virus, read-out: ZIKV SPH Relative Titer in C6/36 Cells
C6/36 cells = type: cell-based, Ae. albopictus
[2] = tested on: autophagic vesicles in Vero cells; assay: Autophagy detection (CYTO-ID) in Vero cells; type: cell-based; conditions: 10 µM compound, 24 h, CYTO-ID green MFI vs DMSO control
ZIKV SPH [3] = assay: Autophagy compound library screen, ZIKV SPH titer (TCID50) in Vero cells; type: cell-based, Zika virus; conditions: for activity at 10 µM: Zika virus, Vero, read-out: ZIKV SPH Relative Titer in Vero Cells
Vero cells = assay: Cell viability (CellTiter-Glo) of Vero cells; type: cell-based
ZIKV IbH = assay: Autophagy compound screen in Vero cells infected with ZIKV IbH; type: cell-based, Zika virus; conditions: African-lineage ZIKV IbH, 10 µM
ZIKV = tested on: ZIKV; design: method as in ref 12 = [12]; conditions: cited from earlier work
ZIKV SPH [4] = assay: Time-of-addition assay in Vero cells; type: cell-based, Zika virus; conditions: Vero, 24 hpi
[5] = 10 µM compound, MOI 0.1, 96 h, TCID50, ± SEM, three independent trials
[6] = C6/36, 10 µM compound, MOI 0.1, 96 h, TCID50, ± SEM, three independent trials
[7] = 10 µM compound, MOI 0.1, 40 h, TCID50, ± SEM, three independent trials
[8] = 10 µM compound, 96 h, CellTiter-Glo, ± SEM, three independent trials
[9] = 10 µM compound, 40 h, CellTiter-Glo, ± SEM, three independent trials

| SMILES | ZIKV SPH Relative Titer in C6/36 Cells (ZIKV SPH [1]; [5]) | activity at 10 µM (ZIKV SPH [1]; [6]) [%] | ZIKV SPH Relative Titer in Vero Cells (ZIKV SPH [3]; [7]) | Vero Viability (Vero cells; 10 µM) | C6/36 Viability (C6/36 cells; [8]) | Vero Viability (Vero cells; [9]) | also measured |
| --- | --- | --- | --- | --- | --- | --- | --- |
| CO[C@H]1C[C@@H]2CC[C@@H](C)[C@@](O)(O2)C(=O)C(=O)N2CCCC[C@H]2C(=O)O[C@H]([C@H](C)C[C@@H]2CC[C@@H](O)[C@H](OC)C2)CC(=O)[C@H](C)/C=C(\C)[C@@H](O)[C@@H](OC)C(=O)[C@H](C)C[C@H](C)/C=C/C=C/C=C/1C [Rapamycin] | slightly decreased production | 75.7 ± 47.7 | increased ZIKV titers | 66.0 ± 2.6% of untreated control |  |  | ZIKV SPH Relative Titer in C6/36 Cells (ZIKV SPH [1]; 10 µM compound, MOI 0.1, 96 h, TCID50, ± SEM, three independent trials, listed as rapamycin): slightly decreased titers; C6/36 Viability (C6/36 cells; 10 µM): 59 ± 7.3% of untreated control; Autophagy Activity Factor (AAF) [2]: 7.74 |
| CCCCc1oc2ccccc2c1C(=O)c1cc(I)c(OCCN(CC)CC)c(I)c1 [Amiodarone HCl] |  | 2 ± 0.5 |  |  |  |  | ZIKV IbH titer in Vero cells compared to control (ZIKV IbH): reduced ZIKV IbH titers; Autophagy Activity Factor (AAF) [2]: 60.40 |
| C=CC(C)(C)c1cc(/C=C/C(=O)c2ccc(O)cc2)c(OC)cc1O [Licochalcone A] | 51.8 ± 28.5% of untreated control |  | 7.2 ± 2.9% of untreated control |  | 43 ± 2% of untreated control |  | ZIKV IbH titer in Vero cells compared to control (ZIKV IbH): reduced ZIKV IbH titers; Autophagy Activity Factor (AAF) [2]: 12.33; ZIKV SPH Relative Titer in Vero Cells (ZIKV SPH [3]; 10 µM compound, MOI 0.1, 40 h, TCID50, ± SEM, three independent trials, listed as licochalcone A): below 10% of untreated control; Vero Viability (Vero cells; 10 µM compound, 40 h, CellTiter-Glo, ± SEM, three independent trials, 10 µM): 100.7 ± 9.4% of untreated control; Vero Viability (Vero cells; 10 µM compound, 40 h, CellTiter-Glo, ± SEM, three independent trials, listed as licochalcone A, 10 µM): above 80% of untreated control |
| COC[C@H]1OC(=O)c2coc3c2[C@@]1(C)C1=C(C3=O)[C@@H]2CCC(=O)[C@@]2(C)C[C@H]1OC(C)=O [Wortmannin] |  |  |  |  |  | 79.0 ± 3.1% of untreated control | activity at 10 µM (ZIKV SPH [1]; C6/36, 96 h): 190 ± 57.8%; C6/36 Viability (C6/36 cells; 10 µM): 105 ± 5.5% of untreated control; activity at 10 µM (ZIKV SPH [3]; 40 h): 46.9 ± 9% |
| O[C@@H](CS)[C@@H](O)CS [DTT] | 145.7 ± 16.6% of untreated control |  | 60.2 ± 20.1% of untreated control |  | 79 ± 4.4% of untreated control | 93.0 ± 1.5% of untreated control |  |
| CN(C)C(=O)C(CCN1CCC(O)(c2ccc(Cl)cc2)CC1)(c1ccccc1)c1ccccc1 [Loperamide HCl] |  | 0.1 ± 0.1 |  |  | 12 ± 6.1% of untreated control | 66.7 ± 17.4% of untreated control | activity at 10 µM (ZIKV SPH [3]; [7]): 11.7 ± 3.3% |
| CN1CCN(CCCN2c3ccccc3Sc3ccc(C(F)(F)F)cc32)CC1.Cl.Cl [Trifluoperazine·2HCl] | 0.3 ± 0.3% of untreated control |  | 2.8 ± 0.7% of untreated control | 51.0 ± 22.1% of untreated control | 10 ± 3.8% of untreated control |  |  |
| CNC(=O)c1cc(Oc2ccc(NC(=O)Nc3ccc(Cl)c(C(F)(F)F)c3)cc2)ccn1 [Sorafenib tosylate] |  | 9.4 ± 8.8 |  |  | 23 ± 8.8% of untreated control | 58.3 ± 9.9% of untreated control | activity at 10 µM (ZIKV SPH [3]; [7]): 5.8 ± 1.8% |
| C[C@H](CCC(=O)[O-])[C@H]1CC[C@H]2[C@@H]3CC[C@@H]4C[C@H](O)CC[C@]4(C)[C@H]3C[C@H](O)[C@]12C.[Na+] [Deoxycholate·Na] | 90.6 ± 12.5% of untreated control |  | 76.6 ± 16.6% of untreated control | 95.3 ± 2.6% of untreated control | 83 ± 1% of untreated control |  |  |
| OC[C@H]1O[C@H](O[C@H]2O[C@H](CO)[C@@H](O)[C@H](O)[C@H]2O)[C@H](O)[C@@H](O)[C@@H]1O [Trehalose] | not able to reduce ZIKV titers | 246 ± 101 | not able to reduce ZIKV titers | 97.7 ± 1.5% of untreated control |  |  | C6/36 Viability (C6/36 cells; 10 µM): 99 ± 2.9% of untreated control |
| COc1ccc(C[C@H]2NC[C@H](O)[C@H]2OC(C)=O)cc1 [Anisomycin] | 0.0 ± 0% of untreated control |  | 0.0 ± 0% of untreated control |  | 7 ± 0.9% of untreated control | 12.7 ± 4.3% of untreated control |  |
| O=C1NCN(c2ccccc2)C12CCN(CCCC(c1ccc(F)cc1)c1ccc(F)cc1)CC2 [Fluspirilene] |  | 1 ± 0.7 |  | 56.7 ± 16% of untreated control | 26 ± 10.3% of untreated control |  | activity at 10 µM (ZIKV SPH [3]; [7]): 2.5 ± 0.6% |
| CCCC(=O)Nc1ncnc2c1ncn2[C@@H]1O[C@@H]2COP(=O)([O-])O[C@H]2[C@H]1OC(=O)CCC.[Na+] [Dibutyryl cAMP·Na] | 142.6 ± 63.9% of untreated control |  | 60.6 ± 36.7% of untreated control | 98.3 ± 4.4% of untreated control | 117 ± 10.7% of untreated control |  |  |
| CCN(CCO)CCCC(C)Nc1ccnc2cc(Cl)ccc12 (centres unmarked) [Hydroxychloroquine] | decreased titers | 25.1 ± 12.6 | decreased titers | 85.3 ± 8.4% of untreated control |  |  | C6/36 Viability (C6/36 cells; 10 µM): 35 ± 9.7% of untreated control; ZIKV spread in a mouse model (ZIKV): blocked ZIKV spread |
| Nc1ncnc2c1nc(Sc1ccc(Cl)cc1)n2[C@@H]1O[C@@H]2COP(=O)([O-])O[C@H]2[C@H]1O.[Na+] [8-CPT-cAMP·Na] | 60.1 ± 18.3% of untreated control |  | 107.8 ± 65.3% of untreated control |  | 75 ± 3.7% of untreated control | 92.7 ± 0.7% of untreated control |  |
| Cl.N [Ammonium chloride] |  |  |  |  |  |  | ZIKV replication, time-of-addition (ZIKV SPH [4]; 30 mM ammonium chloride added later in infection): less inhibitory; ZIKV replication, time-of-addition (ZIKV SPH [4]; 30 mM ammonium chloride, 2 h prior to infection and at the time of infection): inhibited ZIKV replication |
| NC(=O)c1ncn([C@@H]2O[C@H](CO)[C@@H](O)[C@H]2O)c1N [AICAR] | 252.0 ± 115% of untreated control |  | 112.3 ± 32.3% of untreated control |  | 125 ± 16.4% of untreated control | 90.0 ± 11.1% of untreated control |  |
| C[C@H](CCC(=O)O)C[C@H](C)C[C@H](C)C(=O)/C=C(\O)[C@H](C)C[C@H](C)C/C=C/[C@@H](C)[C@@H](O)[C@@H](C)[C@@H](O)C[C@@H]1CC[C@@](C)([C@H]2CC[C@@](C)([C@@H](C)O)O2)O1 [Ionomycin] |  | 0 |  |  | 1 ± 0.3% of untreated control | 27.7 ± 10.4% of untreated control | activity at 10 µM (ZIKV SPH [3]; [7]): 0% |
| O=S(=O)(F)Cc1ccccc1 [PMSF] | 258.0 ± 145.2% of untreated control |  | 89.0 ± 7% of untreated control |  | 81 ± 6.4% of untreated control | 98.3 ± 2% of untreated control |  |
